# Entries after “also recorded” stand apart in the source; their conditions may differ.
# How the values were obtained:
# [1] = test system: murine P388/adriamycin-resistant leukemia; test: In vivo antitumor activity vs. murine P388/adriamycin-resistant leukemia (P388/ADR); settings: for Median increase in lifespan / Net mean percent weight change, day 7 / Long-term survivors / Range of death (dying animals): ip; for Long-term survivors: sacrifice day 60
# Excerpt: Assays were run essentially according to the established protocols of the U.S. National Cancer Institute (Geran et al., 1972 "Protocols for Screening Chemical Agents and Natural Products Against Animal Tumors and Other Biological Systems" (3rd Ed.), Cancer Chemotherapy Rep. [3]33, 1-103.), with the test agent given at 3-5 incremental dose levels in each screening experiment and with median survival of treated groups referenced against data for untreated controls.
# *B6D2F1 males; 1 × 10^6 tumor cell inoculum ip day 0; treatment
# [2] = test system: red blood cells; test: Hematotoxicity study in non-tumor-bearing animals, red blood cell count; assay type: in vivo, mice; settings: 3 dose levels
# Excerpt: Clinically and in laboratory animals, anthracycline antibiotics and chloroethylnitrosourea alkylating agents currently used in medical oncology are known to be strongly myelosuppressive, with the effects of the alkylating agents on suppression of bone marrow activity being particularly profound and long-lasting.
# [3] = test system: calf thymus DNA; test: Interstrand cross-link formation in isolated calf thymus DNA, ethidium bromide fluorescence assay; assay type: biochemical
# Experimental: To further assess the alkylation potential of AD 312, the ability of this agent to form interstrand cross-links in isolated calf thymus DNA was examined using an ethidium bromide fluorescence assay. […] In one set of experiments, DNA was exposed briefly to AD 312 (30 minutes at 50° C.) before being reisolated by precipitation with ethanol. […] Such continuing reaction reflects the presence in the DNA of long-lived precursors of crosslinks similar to what has been found for the classical antitumor chloroethylnitrosoureas. […] It appears, therefore, that AD 312 induces DNA interstrand crosslinks via an initial adduct at O^6 -guanine.
# [4] = test system: human CEM leukemic lymphocytes; test: Growth inhibition of human CEM leukemic lymphocyte suspension cultures, 48 h continuous drug exposure (ID50); assay type: cell-based
# Experimental: Culture and bioassay conditions were as described in Cancer Chemotherapy Pharmacology 20:277 (1987) "Comparative Effects of Adriamycin and DNA-nonbinding Analogues on DNA, RNA, and Protein Synthesis in Vitro", Israel et al., except that cell counts were determined by hemocytometer rather than by automated cell counting.
# [5] = test system: plasmid PC15 supercoiled DNA; test: DNA unwinding assay (interference with DNA topoisomerase I-mediated unwinding; drug-DNA intercalation); assay type: biochemical
# [6] = P388/ADR, single dose 40.5 mg/kg day 1
structure (smiles),measurement,setting,value
"COc1cccc2c1C(=O)c1c(O)c3c(c(O)c1C2=O)C[C@@](O)(C(C)=O)C[C@@H]3O[C@H]1C[C@H](NC(=O)N(CCCl)N=O)[C@H](O)[C@H](C)O1 [AD 312, 2-chloroethylnitrosoureidodaunorubicin]",curative rate,"[1]; P388/ADR, once daily for 4 days, 15.0 to 20.0 mg/kg/day (3 dose levels)",100%
same,dose toxicity,[1]; [6],nontoxic
same,therapeutic effect,[1]; [6],significant therapeutic effect
same,Median increase in lifespan,[1]; 15.0 mg/kg qd 1-4,> +500%
same,"Net mean percent weight change, day 7",[1]; 15.0 mg/kg qd 1-4,-4%
same,Long-term survivors,[1]; 15.0 mg/kg qd 1-4,7/7
same,Median increase in lifespan,[1]; 17.5 mg/kg qd 1-4,> +500%
same,"Net mean percent weight change, day 7",[1]; 17.5 mg/kg qd 1-4,-9%
same,Long-term survivors,[1]; 17.5 mg/kg qd 1-4,7/7
same,Median increase in lifespan,[1]; 20.0 mg/kg qd 1-4,> +500%
same,"Net mean percent weight change, day 7",[1]; 20.0 mg/kg qd 1-4,-9%
same,Long-term survivors,[1]; 20.0 mg/kg qd 1-4,7/7
same,Median increase in lifespan,[1]; 27.0 mg/kg d1 only,> +500%
same,"Net mean percent weight change, day 7",[1]; 27.0 mg/kg d1 only,+5%
same,Range of death (dying animals),[1]; 27.0 mg/kg d1 only,"19,26 days"
same,Long-term survivors,[1]; 27.0 mg/kg d1 only,5/7
same,Median increase in lifespan,[1]; 40.5 mg/kg d1 only,> +500%
same,"Net mean percent weight change, day 7",[1]; 40.5 mg/kg d1 only,-0.5%
same,Range of death (dying animals),[1]; 40.5 mg/kg d1 only,"13,27 days"
same,Long-term survivors,[1]; 40.5 mg/kg d1 only,5/7
same,change in red blood cell counts,[2],No significant change in red blood cells counts
same,interstrand crosslink formation,"[3]; 10 mM, 4 hours at 50° C.",appreciable interstrand crosslinks
same,continued crosslink formation after drug removal,"[3]; 30 min exposure at 50° C., DNA reisolated, further incubation at 50° C.",crosslinks continued to form for several hours
same,effect of O^6-alkylguanine-DNA alkyltransferase on crosslink formation,[3]; enzyme added to AD 312-treated DNA,can block the protracted second step in crosslink formation
same,growth inhibitory activity,[4]; CEM in vitro,moderate to marked growth inhibitory activity; also recorded: somewhat less active
same,IC50,"[4]; Homo sapiens, Lymphocyte, CEM, 48 hr continuous drug exposure (Table 2), read-out: ID50 (the source's name)",90 nM
same,relative strength of drug-DNA intercalation (arbitrary scale),"[5]; 0 = no intercalation, 9 = very strong intercalation",5
same,interference with topoisomerase I-mediated conversion of supercoiled DNA / intercalation,"[5]; 4 concentrations, 125-fold range","the ability of these compounds to intercalate, a prerequisite for topoisomerase II inhibition, is clearly established"
